Reference: patent US20260265195A1, “SARM1 MODULATORS, PREPARATIONS, AND USES THEREOF” (SIRONAX LTD, priority 2022, published 2026)

Target: T1, SARM1 (50-724) (Homo sapiens, UniProt Q6SZW1)
T1 construct: Purified SARM1 (50-724) with a final concentration of 2 nM
T1 sequence (Q6SZW1 50-724): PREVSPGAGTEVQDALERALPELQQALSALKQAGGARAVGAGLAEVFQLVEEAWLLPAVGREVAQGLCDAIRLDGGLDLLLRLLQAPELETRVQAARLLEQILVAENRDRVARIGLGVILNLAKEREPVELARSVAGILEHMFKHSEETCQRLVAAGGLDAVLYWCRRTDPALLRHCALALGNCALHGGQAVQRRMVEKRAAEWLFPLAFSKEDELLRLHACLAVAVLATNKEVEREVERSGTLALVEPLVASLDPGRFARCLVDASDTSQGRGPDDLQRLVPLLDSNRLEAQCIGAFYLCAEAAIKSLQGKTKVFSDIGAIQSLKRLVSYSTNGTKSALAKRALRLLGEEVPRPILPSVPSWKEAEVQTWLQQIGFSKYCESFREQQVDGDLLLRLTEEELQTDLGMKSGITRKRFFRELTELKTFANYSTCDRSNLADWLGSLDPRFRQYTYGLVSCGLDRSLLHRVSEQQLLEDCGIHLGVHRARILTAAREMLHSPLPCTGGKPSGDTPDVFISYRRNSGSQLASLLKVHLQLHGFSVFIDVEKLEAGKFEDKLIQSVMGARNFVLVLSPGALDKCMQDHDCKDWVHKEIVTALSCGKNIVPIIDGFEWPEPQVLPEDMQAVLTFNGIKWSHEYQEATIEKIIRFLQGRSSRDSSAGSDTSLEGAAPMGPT
Assay: SARM1 (50-724) enzymatic assay (NMN-activated NAD+ hydrolysis, LC-MS/MS readout)
Type: biochemical
Settings: purified SARM1 (50-724) 2 nM, 200 μM NMN activator, 100 μM NAD+ substrate, 1 h at room temperature, read-out: IC50 (SARM1 inhibitory activity)
How it was run: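 NMN-activated NAD+ hydrolysis: compound pre-incubated 15 min at room temperature with 2 nM SARM1 (50-724) at 1% DMSO in DPBS; 100 μM NAD+ plus 200 μM NMN added and reacted 1 h at RT. Acetonitrile quench, LC-MS/MS readout.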

| Compound | IC50 [nM] |
| --- | --- |
| O=C(c1nc2cc(C(F)(F)F)ccc2[nH]1)N(CC(F)(F)C(=O)O)c1cccc(Cl)c1Cl [Compound 106, 3-(N-(2,3-dichlorophenyl)-6-(trifluoromethyl)-1H-benzo[d]imidazole-2-carboxamido)-2,2-difluoropropanoic acid] | ≤ 100 |
| NC(=O)C(F)(F)CN(C(=O)c1nc2cc(C(F)(F)F)ccc2[nH]1)c1cccc(Cl)c1Cl [Compound 107, N-(3-amino-2,2-difluoro-3-oxopropyl)-N-(2,3-dichlorophenyl)-5-(trifluoromethyl)-1H-benzo[d]imidazole-2-carboxamide] | ≤ 100 |
| CS(=O)(=O)c1ccc2[nH]c(C(=O)N(CCO)c3cccc(Cl)c3Cl)nc2c1 [Compound 108, N-(2,3-dichlorophenyl)-N-(2-hydroxyethyl)-5-(methylsulfonyl)-1H-benzo[d]imidazole-2-carboxamide] | 101 to 500 |
| N#Cc1cc(Cl)c(Cl)c(N(CCO)C(=O)c2nc3cc(C(F)(F)F)ccc3[nH]2)c1 [Compound 109, N-(2,3-dichloro-5-cyanophenyl)-N-(2-hydroxyethyl)-5-(trifluoromethyl)-1H-benzo[d]imidazole-2-carboxamide] | 101 to 500 |
| Cn1nc(N(CCO)C(=O)c2nc3cc(C(F)(F)F)ccc3[nH]2)c(Cl)c1Cl [Compound 110, N-(4,5-dichloro-1-methyl-1H-pyrazol-3-yl)-N-(2-hydroxyethyl)-5-(trifluoromethyl)-1H-benzo[d]imidazole-2-carboxamide] | ≤ 100 |
| Cn1nc(N(CC2COC2)C(=O)c2nc3cc(C(F)(F)F)ccc3[nH]2)c(Cl)c1Cl [Compound 111, N-(4,5-dichloro-1-methyl-1H-pyrazol-3-yl)-N-(oxetan-3-ylmethyl)-5-(trifluoromethyl)-1H-benzo[d]imidazole-2-carboxamide] | ≤ 100 |
| O=C(c1nc2cc(C(F)(F)F)ccc2[nH]1)N(CC(F)(F)CO)c1cccc(Cl)c1Cl [Compound 112, N-(2,3-dichlorophenyl)-N-(2,2-difluoro-3-hydroxypropyl)-5-(trifluoromethyl)-1H-benzo[d]imidazole-2-carboxamide] | ≤ 100 |
| CN(C(=O)c1nc2c(C3COC3)cccc2[nH]1)C1CCCC1 [Compound 113, N-cyclopentyl-N-methyl-4-(oxetan-3-yl)-1H-benzo[d]imidazole-2-carboxamide] | ≥ 1000 |
| O=C(c1nc2cc(C(F)(F)F)ccc2[nH]1)N(CC1CNC1)c1cccc(Cl)c1Cl [Compound 114, N-(azetidin-3-ylmethyl)-N-(2,3-dichlorophenyl)-5-(trifluoromethyl)-1H-benzo[d]imidazole-2-carboxamide] | 101 to 500 |
| N#Cc1ccc(Cl)c(Cl)c1N(CCO)C(=O)c1nc2cc(C(F)(F)F)ccc2[nH]1 [Compound 115, N-(2,3-dichloro-6-cyanophenyl)-N-(2-hydroxyethyl)-5-(trifluoromethyl)-1H-benzo[d]imidazole-2-carboxamide] | ≤ 100 |
| O=C(c1nc2cc(C(F)(F)F)ccc2[nH]1)N(CCN1CC(F)(F)C1)c1cccc(Cl)c1Cl [Compound 116, N-(2,3-dichlorophenyl)-N-(2-(3,3-difluoroazetidin-1-yl)ethyl)-5-(trifluoromethyl)-1H-benzo[d]imidazole-2-carboxamide] | ≤ 100 |
| O=C(c1nc2cc(C(F)(F)F)ccc2[nH]1)N(c1cccc(Cl)c1Cl)C1CNC1 [Compound 117, N-(azetidin-3-yl)-N-(2,3-dichlorophenyl)-5-(trifluoromethyl)-1H-benzo[d]imidazole-2-carboxamide] | ≥ 1000 |
| Cc1c(Cl)cccc1N(C)C(=O)c1nc2cc(C(F)(F)F)ccc2[nH]1 [Compound 118, N-(3-chloro-2-methylphenyl)-N-methyl-5-(trifluoromethyl)-1H-benzo[d]imidazole-2-carboxamide] | ≤ 100 |
| O=C(c1nc2cc(-c3ccn[nH]3)ccc2[nH]1)N(CC1COC1)c1cccc(Cl)c1Cl [Compound 119] | 101 to 500 |
